Measured values as given in patent US8940340B2, “Systems and methods for maintaining the dominance of Nannochloropsis in an algae cultivation system” (Aurora Algae, Inc., priority 2009, dated 2015).

Experiments:
Nannochloropsis [1] = test: hypochlorite kill curve: dry biomass productivity of laboratory Nannochloropsis cultures; format: cell-based; settings: for Mean Productivity of Nannochloropsis: daily addition
Procedure: Algal cultivation: 800 ml cultures are maintained in one inch thick Roux flasks with continuous magnetic stirring. Continuous illumination at 700 MicroEinsteins per meter squared per second is provided by four 54-watt T5 fluorescent bulbs rated with a correlated color temperature of […]. 1% CO2 is bubbled through […] rate sufficient to maintain a pH between 7.0 and 8.5. Photoautotrophic growth is maintained on UFM media formulated with artificial seawater (35 g/L Instant Ocean) containing 720 mg/L urea, 168 mg/L K2HPO4, 1.5 ml/L of a metals solution and 1 ml/L of a vitamin solution. The metals solution contains 39.7 g/L Fe(III)Cl3(6H2O), 30.0 g/L EDTA, 1.2 g/L MnCl2(4H2O), 0.08 g/L CoCl2(6H2O), 0.16 g/L ZnSO4(7H2O), 0.067 g/L CuSO4(5H2O), 0.023 g/L Na2MoO4(2H2O). The vitamins solution contains 0.001 g/L vitamin B12, 0.001 g/L Biotin, and 0.2 g/L Thiamine. Cultures are diluted by exchanging 400 ml of culture with fresh media every day at the same time. From the 400 ml that are removed, the dry biomass concentration is determined as below. Determination of culture biomass concentration: A sample of the culture between 0.5 and five milliliters is vacuum filtered through a pre-rinsed and pre-ashed Whatman GF/C glass microfiber filter disc. The cake is rinsed with twenty milliliters of 0.7M ammonium formate and dried for at least 2 hours at 105° C. The dried sample is weighed on an analytical balance and then ashed at 550° C. for at least 1 hour. The post ash weight is subtracted from the pre-ash weight and divided by the volume of the sample to get the ash-free dry biomass density in milligrams per milliliter. Given the dilution volume and the previous day's dry biomass concentration, the current day's dry biomass concentration can be used to establish the culture's dry biomass productivity in grams per liter per day. This productivity value can then be compared across different experimental conditions. For the hypochlorite kill curve, four cultures are measured for productivity as above, each of which receives a different dose of sodium hypochlorite with the fresh media that is added at dilution time. The final concentration of sodium hypochlorite following dilution for each of the four cultures is 0, 20, 40 and 80 milligrams per liter.

[2] = system: predators (amoeba, protozoa, and crustaceans); test: outdoor open pond cultivation with chlorine addition: growth of introduced predators; settings: 2.5-3 mg every other day, 22-24 PPT
Procedure: (§1) In the following examples, Nannochloropsis was grown in outdoor, open, ponds in Vero Beach, Fla. The climate in Vero Beach is semitropical, with mild winters and hot, humid summers. It is a challenging climate for keeping outdoor algal cultures stable and productive. The overnight warmth encourages predation by protozoa, rotifers, and crustaceans. The humidity allows the airborne transport of competing algae, and thus increases the rate of invasion. In some of the examples the techniques applied were successful in keeping Nannochloropsis as the dominant alga, at ninety-five percent (95%) to nearly one-hundred percent (100%) of the algal biomass, even when competitors and/or predators were intentionally introduced to the algae cultivation system. In some cases, predators were undetectable most of the time, even after they were intentionally introduced.
Ten ponds (four 1.4 square meter, four 3 square meter, and two approximately 200 square meter) were used to test many conditions of salinity and chlorination over fifteen months. Not all of the conditions were run for that whole time period. The results from the following seven conditions are summarized below: 1) 35-36 PPT (full) seawater salinity, 2) 28-30 PPT (dilution of full seawater with fresh water in a ratio of 3:1), 3) 22-24 PPT (dilution of full seawater with fresh water in a ratio of about 2:1), 4) condition no. […]

Nannochloropsis [3] = test: outdoor open pond cultivation with chlorine addition (condition four)
Procedure: Chlorine compounds may be added directly to the cultivation vessel. They may be added to the water of dilution of the cultivation vessel. In either case they may be added in solid (granular) form, liquid form, or as chlorine gas. In experiments performed by the inventors, the chlorine was added as a liquid (e.g., sodium hypochlorite). Typically, 10-12% solutions of sodium hypochlorite were diluted 10 to 100 fold and added directly to the cultivation reactor to achieve the initial concentration of sodium hypochlorite cited in each case.
as §1
Ten ponds (four 1.4 square meter, four 3 square meter, and two approximately 200 square meter) were used to test many conditions of salinity and chlorination over fifteen months. Not all of the conditions were run for that whole time period. The results from the following seven conditions are summarized below: 1) 35-36 PPT (full) seawater salinity, 2) 28-30 PPT (dilution of full seawater with fresh water in a ratio of 3:1), 3) 22-24 PPT (dilution of full seawater with fresh water in a ratio of about 2:1), 4) condition no. 3 with chlorine added to the pond every other day to an initial concentration of sodium hypochlorite of 3 ppm, 5) 10-12 PPT (dilution of full seawater with fresh water in a ratio of about 1:2), 6) 5-7 PPT (dilution of full seawater with fresh water in a ratio of about 1:6. and 7) about 1 PPT (dilution of seawater with fresh water in a ratio of about 1:40).
Condition four was run from Oct. 4, 2007 until Jun. […] Commercial chlorine solutions were added to the algae cultivation systems every other day to obtain an initial concentration of 2.5-3 mg of sodium hypochlorite. […] The Nannochloropsis was cultivated without interruption and at greater than 95% dominance, throughout the entire cultivation period (over eight months). […] Species added included Tetraselmis and Dunaliella, along with amoeba, protozoa, and crustaceans. The Tetraselmis and Dunaliella cultures were decimated by the predators. The predators were not observable in the Nannochloropsis cultures after a few days.

Structure (SMILES): OCl [sodium hypochlorite]
- survival of Nannochloropsis cultures after extremely high exposure (Nannochloropsis [1]; above 80 milligrams/liter, exposure not prolonged): recover
- productivity of Nannochloropsis in the first two days following administration (Nannochloropsis [1]; at least 80 milligrams/liter): zero productivity
- time for Nannochloropsis to recover after shock injection (Nannochloropsis [1]; shock amount, initial concentration 40-80 milligrams/liter or higher): two to three
- Mean Productivity of Nannochloropsis (Nannochloropsis [1]; sodium hypochlorite 20 Milligrams/Liter): 570 Milligrams/Liter/Day
- Mean Productivity of Nannochloropsis (Nannochloropsis [1]; sodium hypochlorite 40 Milligrams/Liter): 460 Milligrams/Liter/Day
- Mean Productivity of Nannochloropsis (Nannochloropsis [1]; sodium hypochlorite 80 Milligrams/Liter): 0 Milligrams/Liter/Day
- growth of predators added to the chlorinated cultures [2]: No predators were able to grow
- Nannochloropsis dominance throughout the cultivation period (Nannochloropsis [3]; 2.5-3 mg every other day, 22-24 PPT, over eight months): greater than 95%
- contamination versus non-chlorinated cultures at the same salinity (Nannochloropsis [3]; 22-24 PPT, cooler months): no observable difference
- contamination versus non-chlorinated cultures at the same salinity (Nannochloropsis [3]; 22-24 PPT, warmer months of the year): less contamination than non-chlorinated cultures
- culture stability over the run (Nannochloropsis [3]; condition four, about 250 days): without stability problems
- effect on productivity compared to condition three with no added chlorine (Nannochloropsis [3]; initial concentration 2.5-3 mg every other day, salinity 22-24 PPT): often had no effect on productivity
